Source: patent publication US11472805B2, “Tricyclic compounds and their use as phosphodiesterase inhibitors” (Pfizer Inc., priority 2015, dated 2022)

Assays:
Assay type in all cases: biochemical
[1] = target: Human PDE4A3 (Homo sapiens (Human), UniProt P27815); assay: PDE4A3 Scintillation Proximity Assay (SPA), inhibition of enzyme activity; settings: Table 9, geometric mean of 2-9 determinations unless otherwise indicated, read-out: Human PDE4A FL
How it was run: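 Recombinant human PDE4A3 expressed in insect cells, purified via Ni-NTA, anti-FLAG and size exclusion. SPA run 30 min at 25 °C in 50 mM Tris pH 7.5, 1.3 mM MgCl2, 0.01% Brij with 1 μM cAMP (20 nM 3H-cAMP), […], ~20% substrate conversion; stopped with yttrium silicate beads.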

[2] = target: human PDE4D3 (Homo sapiens (Human), UniProt Q08499); assay: PDE4D3 Scintillation Proximity Assay (SPA), inhibition of enzyme activity; settings: Table 9, geometric mean of 2-9 determinations unless otherwise indicated, read-out: Human PDE4D FL
How it was run: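 His-tagged human PDE4D3 (aa 50–672), expressed in insect cells, hydrolysed 1 μM cAMP (3H tracer plus cold) for 30 min at 25° C in 50 mM Tris pH 7.5, 1.3 mM MgCl2 and 0.01% Brij. Enzyme level was set for ~20% conversion. Product was read by yttrium silicate SPA beads after 8 h settling.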

[3] = target: Human PDE4B1 (Homo sapiens (Human), UniProt Q07343, S133E/S654A/S659A/S661A); assay: PDE4B1 Scintillation Proximity Assay (SPA), inhibition of enzyme activity; settings: Table 9, geometric mean of 2-9 determinations unless otherwise indicated, read-out: Human PDE4B FL
How it was run: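 His-tagged enzyme from baculovirus-infected insect cells, Ni-NTA purified. SPA with 1 μM cAMP (20 nM 3H-cAMP tracer) in 50 mM Tris pH 7.5, 1.3 mM MgCl2, 0.01% Brij, […] PDE4B enzyme for ~20% substrate conversion; 30 min at 25 °C, stopped with yttrium silicate beads, read after 8 h settling.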

[4] = target: Human PDE4C1 (Homo sapiens (Human), UniProt Q08493); assay: PDE4C1 Scintillation Proximity Assay (SPA), inhibition of enzyme activity; settings: Table 9, geometric mean of 2-9 determinations unless otherwise indicated, read-out: Human PDE4C FL
How it was run: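 Recombinant insect-cell-expressed human PDE4C1 […] in 50 mM Tris pH 7.5, 1.3 mM MgCl2, 0.01% Brij with 1 μM cAMP (3H-cAMP tracer), ~20% substrate conversion, inhibitor concentration range. Incubated 30 min at 25° C; stopped with yttrium silicate SPA beads, read by scintillation after 8 h settling.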

Sequence of human PDE4D3 (Q08499 186-808): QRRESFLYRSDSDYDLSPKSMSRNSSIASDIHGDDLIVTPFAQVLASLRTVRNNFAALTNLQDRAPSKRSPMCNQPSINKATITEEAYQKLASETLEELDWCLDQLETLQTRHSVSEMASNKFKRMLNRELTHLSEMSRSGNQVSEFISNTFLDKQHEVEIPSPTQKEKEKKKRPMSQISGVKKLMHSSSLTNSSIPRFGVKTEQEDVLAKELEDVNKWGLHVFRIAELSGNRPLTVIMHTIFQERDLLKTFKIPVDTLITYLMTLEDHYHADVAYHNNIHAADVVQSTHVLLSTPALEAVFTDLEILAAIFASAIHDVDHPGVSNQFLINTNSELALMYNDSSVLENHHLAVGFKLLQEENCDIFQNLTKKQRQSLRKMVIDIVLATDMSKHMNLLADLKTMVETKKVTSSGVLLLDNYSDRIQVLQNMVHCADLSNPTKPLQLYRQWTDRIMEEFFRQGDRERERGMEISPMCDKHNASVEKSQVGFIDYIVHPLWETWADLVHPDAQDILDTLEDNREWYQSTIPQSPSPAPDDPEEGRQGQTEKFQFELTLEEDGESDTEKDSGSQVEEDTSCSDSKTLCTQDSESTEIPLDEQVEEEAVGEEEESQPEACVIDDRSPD
Sequence of Human PDE4A3 (P27815 other isoform, or with tags, fused parts or gaps): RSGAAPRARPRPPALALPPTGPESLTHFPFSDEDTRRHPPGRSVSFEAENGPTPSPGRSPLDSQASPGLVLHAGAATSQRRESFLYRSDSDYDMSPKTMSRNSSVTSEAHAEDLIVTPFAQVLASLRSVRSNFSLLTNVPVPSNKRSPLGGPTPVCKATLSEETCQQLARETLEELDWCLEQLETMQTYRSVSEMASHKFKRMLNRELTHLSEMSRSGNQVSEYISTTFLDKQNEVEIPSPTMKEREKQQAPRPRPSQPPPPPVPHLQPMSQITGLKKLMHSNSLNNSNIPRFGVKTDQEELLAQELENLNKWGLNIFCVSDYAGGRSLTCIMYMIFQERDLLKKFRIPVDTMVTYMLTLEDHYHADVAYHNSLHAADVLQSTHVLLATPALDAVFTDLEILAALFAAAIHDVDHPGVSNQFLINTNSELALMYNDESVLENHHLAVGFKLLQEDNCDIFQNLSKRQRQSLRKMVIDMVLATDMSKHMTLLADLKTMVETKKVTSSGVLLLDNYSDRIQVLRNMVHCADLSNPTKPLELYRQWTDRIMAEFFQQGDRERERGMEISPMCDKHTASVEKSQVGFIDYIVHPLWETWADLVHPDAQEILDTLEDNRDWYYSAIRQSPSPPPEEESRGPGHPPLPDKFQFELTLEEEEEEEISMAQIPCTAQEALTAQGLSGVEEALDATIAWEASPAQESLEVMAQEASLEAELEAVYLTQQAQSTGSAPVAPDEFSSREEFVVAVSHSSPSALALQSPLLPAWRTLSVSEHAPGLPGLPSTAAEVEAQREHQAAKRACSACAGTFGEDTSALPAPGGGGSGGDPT
Sequence of Human PDE4C1 (Q08493 2-712): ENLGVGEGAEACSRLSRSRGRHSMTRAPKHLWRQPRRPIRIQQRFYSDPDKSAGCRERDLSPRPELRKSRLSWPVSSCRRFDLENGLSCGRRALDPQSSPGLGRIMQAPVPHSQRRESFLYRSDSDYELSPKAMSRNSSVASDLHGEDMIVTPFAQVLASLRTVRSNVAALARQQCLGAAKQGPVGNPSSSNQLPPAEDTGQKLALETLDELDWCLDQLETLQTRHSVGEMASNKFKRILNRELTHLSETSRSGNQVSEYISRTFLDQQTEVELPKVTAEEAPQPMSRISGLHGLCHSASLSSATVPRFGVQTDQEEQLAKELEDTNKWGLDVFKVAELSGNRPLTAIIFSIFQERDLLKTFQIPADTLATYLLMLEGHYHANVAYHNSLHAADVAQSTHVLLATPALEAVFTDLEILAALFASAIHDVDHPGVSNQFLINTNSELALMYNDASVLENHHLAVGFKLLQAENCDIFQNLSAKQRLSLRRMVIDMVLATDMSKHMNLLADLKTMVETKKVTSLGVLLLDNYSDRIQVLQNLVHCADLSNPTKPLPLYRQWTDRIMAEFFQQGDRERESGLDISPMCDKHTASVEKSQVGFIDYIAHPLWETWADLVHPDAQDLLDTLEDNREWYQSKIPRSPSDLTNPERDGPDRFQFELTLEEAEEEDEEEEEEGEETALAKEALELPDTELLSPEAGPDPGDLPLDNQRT
Sequence of Human PDE4B1 (Q07343 122-736 S133E/S654A/S659A/S661A): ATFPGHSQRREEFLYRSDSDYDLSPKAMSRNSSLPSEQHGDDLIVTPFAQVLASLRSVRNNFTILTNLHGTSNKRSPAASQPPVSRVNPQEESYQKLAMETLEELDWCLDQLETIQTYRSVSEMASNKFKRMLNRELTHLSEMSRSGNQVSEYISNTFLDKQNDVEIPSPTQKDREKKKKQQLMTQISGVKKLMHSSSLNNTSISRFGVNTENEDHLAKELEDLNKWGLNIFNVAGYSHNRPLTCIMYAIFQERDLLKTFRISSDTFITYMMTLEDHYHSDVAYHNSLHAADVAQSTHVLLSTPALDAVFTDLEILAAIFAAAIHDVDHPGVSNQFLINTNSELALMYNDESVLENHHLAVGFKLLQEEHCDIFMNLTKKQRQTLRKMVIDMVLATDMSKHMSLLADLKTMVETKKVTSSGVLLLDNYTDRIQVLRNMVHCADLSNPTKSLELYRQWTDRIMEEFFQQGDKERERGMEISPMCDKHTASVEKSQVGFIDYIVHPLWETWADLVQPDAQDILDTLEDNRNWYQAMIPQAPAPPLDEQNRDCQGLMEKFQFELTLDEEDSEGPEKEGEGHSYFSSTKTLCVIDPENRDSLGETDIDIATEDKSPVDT

N#Cc1ccc(-c2c3n(c4cccnc24)CCN(C2CC2)C3=O)c(F)c1 [Example 22, 4-(8-Cyclopropyl-9-oxo-6,7,8,9-tetrahydropyrido[2′,3′:4,5]pyrrolo[1,2-a]pyrazin-10-yl)-3-fluorobenzonitrile]
IC50 [1]: 7.47 nM | IC50 [2]: 872 nM | IC50 [3]: 11.3 nM | IC50 [4]: 20.2 nM
